Results as given in patent publication US11325884B2, “Ketone inhibitors of lysine gingipain” (CORTEXYME, INC., priority 2016, dated 2022).

What was measured:
[1] = tested on: P. gingivalis W83; experiment: Experimental periodontitis / P. gingivalis infection mouse model; assay type: in vivo, BALB/C female mice; conditions: for alveolar bone loss: week 5-10, vs vehicle; for reduction in P. gingivalis DNA copy number (RgpB gene) in brain tissue: between week 5 and 10
Text: P. gingivalis applied over several weeks directly to the gingiva of mice has been used as a model for periodontitis. Alveolar bone resorption, a hallmark of periodontitis progression, is typically observed when this model employed. More recently, use of the model has also led to the discovery of a significant amount P. gingivalis in the brain, which accumulates concomitantly with oral colonization and which subsequently leads to detrimental effects such as inflammation and loss of hippocampal neurons.
At the beginning of the study, eight week old BALB/C female mice received antibiotic in drinking water (sulfamethoxazolum 0.87 mg/mL, trimethoprimum 0.17 mg/mL) for 10 days to reduce microbiome protection from experiment infection. Experimental periodontitis was induced by ligature placement followed by multiple exposures to P. gingivalis. During the ligature procedure mice were anesthetized with an intraperitoneal injection of ketamine (200 mg/kg) and xylazine (10 mg/kg), and eyes were lubricated with ointment (Puralube Vet; Pharmaderm, Melville, N.Y.). Next, a 5-0 silk ligature (Roboz Surgical Instrument Co.) was tied around the upper maxillary left and right second molar. Sutures were applied and tied gently to prevent damage to the periodontal tissue.
Mice (n=8-10/arm) were infected for 6 weeks every other day. For infection, 100 μL of bacteria solution were applied topically to the buccal surface of the maxillae. For preparation of the bacteria, P. gingivalis W83 (ATCC, Rockville, Md.) was streaked on Tryptic Soy Broth (TSB) agar plates (5% sheep blood, supplemented with 0.5 mg/mL L-cysteine, 5 μg/mL hemin, and 0.5 μg/mL vitamin K) and grown under anaerobic conditions at 37° C. for 5-7 days. Samples were then inoculated in TSB with hemin, vitamin K and L-cysteine (TSB-HKC) until mid-log phase (OD600=0.5-0.7). Bacteria were washed in PBS and prepared at final concentration of 1×10^10 cells/mL in PBS+2% methylcellulose (CMC).
Vehicle-treated animals received PBS only. At 5 weeks, a subgroup of animals (n=16) were euthanized to gather baseline measurements before the start of treatment. After 10 weeks, mice were euthanized and the brain, serum, and maxillary tissues were harvested and frozen in liquid nitrogen.
Bone loss in the maxillae was measured ex vivo blinded using OsiriX MD software (PixmeoSARL, Bernex, Switzerland). Point of measurements were obtained using 3D Multi Planar Reconstruction (MPR) view where the maxillae were sliced straight along the superficial roots of second molar and the posterior root of first molar, with a tangent of the anterior root of the first molar. The distance between the cementoenamel junction (CEJ) and the alveolar bone crest (ABC) was measured from the CEJ to a reference line on the ABC which was placed perpendicular to the superficial root one each side of the second molar. […] (ANOVA: F (5, 24)=15.71, p<0.0001; t-test with Bonferroni correction: **p<0.005, ***p<0.001).
DNA was extracted from brain tissue using the DNeasyBLOOD & TISSUE KIT (Qiagen, Germany) according to manufacturer's protocol. Taqman qPCR was performed with Kapa Probe fast qPCR Mix (Rox Low) on a Bio-Rad CFX96 Real-Time System C1000 Touch ThermalCycler with forward and reverse primers, and a detection probe. The primers were based on a single copy of P. gingivalis arginine-specific cysteine-proteinase gene. Duplicate samples were assayed in a total volume of 10 μL, containing 100 ng of template brain genomic DNA solution, TaqMan Universal PCR Master Mix (2×) (Kapa Biosystems, USA), and the specific set of primers (final concentration 5 μM) and probe (final concentration 4 μM) (GenoMed, Poland), corresponding to 562.5 nM for the forward and reverse primers and 100 nM for the probe primer. After an initial incubation step of 2 min at 50° C. and denaturation for 95° C. for 20 sec, 40 PCR cycles (95° C. for 20 s, 60° C. for 30 sec) were performed. […]

[2] = target: Kgp (Porphyromonas gingivalis (Bacteroides gingivalis), UniProt Q51817); experiment: Detection of Kgp with Cy5 activity-based probe (SDS-PAGE, Cy5 visualization); assay type: binding; conditions: 100 nM preincubation, P. gingivalis W83
Protocol: It has a warhead that binds to the Kgp active site, a peptide-based core, and a Cy5 fluorophore for detection. Labeled target proteins can be visualized by biochemical separation of a sample with fractionation by 2-D gel electrophoresis and detection of fluorescent signals from Cy5 at the appropriate excitation and emission wavelength. Incubation of a fixed concentration of the probe following binding of Kgp to a test compound (e.g., a candidate Kgp inhibitor) results in binding of the activity probe to Kgp active sites not already bound by the test compound.
Preparation of P. gingivalis lysate. 10^8 bacteria were collected and centrifuged at 5000 g for 10 min at 4° C., and the supernatant was discarded. The bacterial cell pellet was lysed with 1 mL of B-Per lysis buffer (Thermo Fischer) on ice for 10 min, then centrifuged for 10 min at 14000 g, 4° C. Supernatant-containing protein lysate was collected. Biological samples were lysed with B-Per lysis buffer for 10 min at 4° C.
Cy5 direct labeling of Kgp. Biological samples, P. gingivalis lysate or purified Kgp were incubated with quenchable Cy5 probe compound 71 (1 μM) for 1 h at 37° C. with shaking. […]

[3] = Oral pharmacokinetics in CD-1 mice; assay type: in vivo; conditions: male CD-1 mice, p.o. 10 mg/kg, as compared to reference compound 73
[4] = tested on: P. gingivalis infection; experiment: Related studies: brain abeta42 and neuroinflammation; assay type: in vivo
Text: By inhibiting Kgp, the compounds disclosed herein can treat P. gingivalis infection itself, as well as the detrimental effects of neurological disease and other infection-associated conditions.

[5] = in vivo, po; cited from earlier work

Kgp, sequence (Q51817 229-737 limits assumed): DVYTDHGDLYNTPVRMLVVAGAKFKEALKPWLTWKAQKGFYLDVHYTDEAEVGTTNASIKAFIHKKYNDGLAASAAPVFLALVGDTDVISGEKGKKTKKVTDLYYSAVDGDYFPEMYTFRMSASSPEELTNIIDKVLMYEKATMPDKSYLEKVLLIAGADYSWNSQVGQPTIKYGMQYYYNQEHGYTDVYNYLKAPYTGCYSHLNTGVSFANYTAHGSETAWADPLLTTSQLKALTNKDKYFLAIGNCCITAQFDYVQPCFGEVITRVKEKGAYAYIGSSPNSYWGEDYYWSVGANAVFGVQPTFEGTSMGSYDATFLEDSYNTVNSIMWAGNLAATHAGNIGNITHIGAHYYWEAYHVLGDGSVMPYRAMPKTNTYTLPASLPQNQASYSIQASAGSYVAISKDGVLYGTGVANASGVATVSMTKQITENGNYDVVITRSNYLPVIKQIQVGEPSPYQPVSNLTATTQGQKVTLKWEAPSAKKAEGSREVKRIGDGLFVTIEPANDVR

Compound | alveolar bone loss ([1]; 3 mg/kg orally b.i.d.) | reduction in P. gingivalis DNA copy number (RgpB gene) in brain tissue ([1]; 3 mg/kg) [%] | alveolar bone loss ([1]; 10 mg/kg orally b.i.d.) | reduction in P. gingivalis DNA copy number (RgpB gene) in brain tissue ([1]; 10 mg/kg) [%] | alveolar bone loss ([1]; 30 mg/kg orally b.i.d.) | reduction in P. gingivalis DNA copy number (RgpB gene) in brain tissue ([1]; 30 mg/kg) [%] | GAD67 positive interneurons in the dentate gyrus ([1]; 10 weeks, infected untreated mice lost 25%) | competition for Kgp active site binding with probe compound 71 [2] | oral availability [3] | plasma concentrations [3] | induction of brain abeta42 [4] | neuroinflammation [4] | half-life [5]
NCCCC[C@H](NC(=O)C1CCCC1)C(=O)COc1c(F)ccc(F)c1F [Compound 1, (S)—N-(7-amino-2-oxo-1-(2,3,6-trifluorophenoxy)heptan-3-yl)cyclopentanecarboxamide] | trended to improvement but did not result in significant improvement | 50 | improved | 50 | improved | 80 | at the same level as the GAD67^+ cells in the mock-infected mice | competes for active site binding | improved | increased | reduce | reduce | 
CN(NC(=O)CC[C@H](NC(=O)OCc1ccccc1)C(=O)N[C@@H](CCCCN)C(=O)C(=O)NCc1ccccc1)c1ccccc1 [Kyt-36] |  |  |  |  |  |  |  |  |  |  |  |  | increases
